The values that follow come from patent US10815247B2, “Functionalized NANOLUC inhibitors” (PROMEGA CORPORATION, priority 2016, dated 2020).

The term IC50 denotes the concentration that inhibits the measured activity by half.

Entries after “also recorded” stand apart in the source; their conditions may differ.

T1 sequence (Q9GV45 28-196 with tags or gaps with the stated changes limits assumed): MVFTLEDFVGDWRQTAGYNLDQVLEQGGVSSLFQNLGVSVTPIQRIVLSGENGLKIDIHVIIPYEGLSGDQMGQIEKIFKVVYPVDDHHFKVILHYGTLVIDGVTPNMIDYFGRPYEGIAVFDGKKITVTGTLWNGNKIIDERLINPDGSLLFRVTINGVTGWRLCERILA

One assay has as its target T1, NanoLuc (Oplophorus gracilirostris, UniProt Q9GV45, A31E/A60N/A81I/F95D/I117V/K70R/L54V/L99Q/M102K/N193R/P142E/Q151K/Q38R/Q45L/V71I/Y165I). The assay is described as follows: Inhibitor IC50 determination. Type of assay: biochemical.
Settings: not given
The protocol:
The following example provides the IC50 values for the compounds disclosed herein. NANOLUC® enzyme was diluted to 0.4 ng/ml in CO2 independent media+10% FBS to make the detection reagent. A 3× dilution series of each inhibitor was then made in the detection reagent. A “no inhibitor” control was also made for each sample. 50 ul of each inhibitor dilution was mixed with 50 ul of NanoGlo® buffer containing 20 μM furimazine (final furimazine concentration is 10 μM, which is at Km.), and luminescence was measured. Each sample was normalized to the “no inhibitor” control. The IC50 values were then determined using GraphPad Prism (log[inhibitor] vs. normalized response).
In turn, `CCc1cccc(N(CC)C(=O)Cn2c(C(=O)N[C@H]3CC[C@H](C(=O)NCCCCCC(=O)OC)CC3)cc3ccccc32)c1` [JRW-0598, methyl 6-(trans-4-(1-(2-(ethyl(3-ethylphenyl)amino)-2-oxoethyl)-1H-indole-2-carboxamido)cyclohexane-1-carboxamido)hexanoate] displayed an IC50 of 0.4 nM.

`CCc1cccc(N(CC)C(=O)Cn2c(C(=O)N[C@H]3CC[C@H](C(=O)NCCCCCC(=O)ON4C(=O)CCC4=O)CC3)cc3ccccc32)c1` [JRW-0604, 2,5-dioxopyrrolidin-1-yl 6-(trans-4-(1-(2-(ethyl(3-ethylphenyl)amino)-2-oxoethyl)-1H-indole-2-carboxamido)cyclohexane-1-carboxamido)hexanoate] yielded an IC50 of 2.7 nM.

`CCc1cccc(N(CC)C(=O)Cn2c(C(=O)N[C@H]3CC[C@H](C(=O)NCCCCCC(=O)Oc4ccccc4)CC3)cc3ccccc32)c1` [JRW-0606, phenyl 6-(trans-4-(1-(2-(ethyl(3-ethylphenyl)amino)-2-oxoethyl)-1H-indole-2-carboxamido)cyclohexane-1-carboxamido)hexanoate] yielded an IC50 of 4.1 nM.

Regarding `CCN(C(=O)Cn1c(C(=O)N[C@H]2CC[C@H](C(=O)NCCCCCCCCNC(=O)c3ccc4c(c3)C(=O)OC43c4ccc(O)cc4Oc4cc(O)ccc43)CC2)cc2sccc21)c1cccc(C)c1` [JRW-0883], 5.4 nM corresponded to half-maximal inhibition (IC50).

For `CCc1cccc(N(CC)C(=O)Cn2c(C(=O)N[C@H]3CC[C@H](C(=O)NCCCCCCCCNC(=O)CCc4ccc5n4[B-](F)(F)[N+]4=C(C)C=C(C)C4=C5)CC3)cc3ccccc32)c1` [JRW-0888, N-(trans-4-((8-(3-(5,5-difluoro-7,9-dimethyl-5H-5λ4,6λ4-dipyrrolo[1,2-c:2′,1′-f][1,3,2]diazaborinin-3-yl)propanamido)octyl)carbamoyl)cyclohexyl)-1-(2-(ethyl(3-ethylphenyl)amino)-2-oxoethyl)-1H-indole-2-carboxamide], inhibition was half-maximal at 26 nM (IC50).

As for `CCc1cccc(N(CC)C(=O)Cn2c(C(=O)N[C@H]3CC[C@H](C(=O)NCCCCCCNC(=O)CCOCCOCCNC(=O)c4ccc5c(c4)C4(OC5=O)c5ccc(N(C)C)cc5Oc5cc(N(C)C)ccc54)CC3)cc3ccccc32)c1` [JRW-0915, N-(trans-4-((1-(3′,6′-bis(dimethylamino)-3-oxo-3H-spiro[isobenzofuran-1,9′-xanthen]-6-yl)-1,11-dioxo-5,8-dioxa-2,12-diazaoctadecan-18-yl)carbamoyl)cyclohexyl)-1-(2-(ethyl(3-ethylphenyl)amino)-2-oxoethyl)-1H-indole-2-carboxamide], it took 5.2 nM to reach half-maximal inhibition (IC50).

The molecule `CCc1cccc(N(CC)C(=O)Cn2c(C(=O)N[C@H]3CC[C@H](C(=O)NCCCCCCCCNC(=O)CCOCCOCCNC(=O)c4ccc5c(c4)C4(OC5=O)c5ccc(N(C)C)cc5Oc5cc(N(C)C)ccc54)CC3)cc3ccccc32)c1` [JRW-0920, N-(trans-4-((1-(3′,6′-bis(dimethylamino)-3-oxo-3H-spiro[isobenzofuran-1,9′-xanthen]-6-yl)-1,11-dioxo-5,8-dioxa-2,12-diazaicosan-20-yl)carbamoyl)cyclohexyl)-1-(2-(ethyl(3-ethylphenyl)amino)-2-oxoethyl)-1H-indole-2-carboxamide] gave an IC50 of 1.7 nM.

Turning to `CCc1cccc(N(CC)C(=O)Cn2c(C(=O)N[C@H]3CC[C@H](C(=O)NCCCCCCCCNC(=O)CCC(=O)NCCC4=C5C=CC=[N+]5[B-](F)(F)n5c(C)cc(C)c54)CC3)cc3ccccc32)c1` [JRW-1081, N1-(2-(5,5-difluoro-1,3-dimethyl-5H-5λ4,6λ4-dipyrrolo[1,2-c:2′,1′-f][1,3,2]diazaborinin-10-yl)ethyl)-N4-(8-(trans-4-(1-(2-(ethyl(3-ethylphenyl)amino)-2-oxoethyl)-1H-indole-2-carboxamido)cyclohexane-1-carboxamido)octyl)succinamide], the midpoint of inhibition, the IC50, lay at 6 nM.

The same assay, now with this note: 0.4 ng/ml NANOLUC in CO2 independent media+10% FBS; final furimazine 10 μM; no pre-incubation noted; read-out: IC50.
In the case of `CCN(C(=O)Cn1c(C(=O)N[C@H]2CC[C@H](C(=O)NCCCCCCCCNC(=O)c3ccc4c(c3)C(=O)OC43c4ccc(N)cc4Oc4cc(N)ccc43)CC2)cc2sccc21)c1cccc(C)c1` [JRW-0887], the IC50 is 6.3 nM.

Turning to `CCN(C(=O)Cn1c(C(=O)NC2CCC(C(=O)NCCCCCCCCNC(=O)CCC3=[N+]4C(=Cc5c(C)cc(C)n5[B-]4(F)F)C=C3)CC2)cc2sccc21)c1cccc(C)c1` (stereo not drawn) [JRW-0889, N-(trans-4-((8-(3-(5,5-difluoro-7,9-dimethyl-5H-5λ4,6λ4-dipyrrolo[1,2-c:2′,1′-f][1,3,2]diazaborinin-3-yl)propanamido)octyl)carbamoyl)cyclohexyl)-4-(2-(ethyl(m-tolyl)amino)-2-oxoethyl)-4H-thieno[3,2-b]pyrrole-5-carboxamide], the IC50 came out at 280 nM.

On to “N1-(2-(5,5-difluoro-1,3-dimethyl-5H-5λ4,6λ4-dipyrrolo[1,2-c:2′,1′-f][1,3,2]diazaborinin-10-yl)ethyl)-N4-(1-(trans-4-(1-(2-(ethyl(3-ethylphenyl)amino)-2-oxoethyl)-1H-indole-2-carboxamido)cyclohexyl)-1,10-dioxo-13,16-dioxa-2,9-diazaoctadecan-18-yl)succinamide [JRW-1082]”, for which the 50% inhibitory concentration (IC50) stood at 3.3 nM.

For “N1-(2-(5,5-difluoro-1,3-dimethyl-5H-5λ4,6λ4-dipyrrolo[1,2-c:2′,1′-f][1,3,2]diazaborinin-10-yl)ethyl)-N4-(1-(trans-4-(1-(2-(ethyl(3-ethylphenyl)amino)-2-oxoethyl)-1H-indole-2-carboxamido)cyclohexyl)-1,12-dioxo-15,18-dioxa-2,11-diazaicosan-20-yl)succinamide [JRW-1083]”, the IC50 stood at 1.8 nM.

Take “N-(trans-4-((1-(3′,6′-dihydroxy-3-oxo-3H-spiro[isobenzofuran-1,9′-xanthen]-5,6-yl)-1,11-dioxo-5,8-dioxa-2,12-diazaicosan-20-yl)carbamoyl)cyclohexyl)-1-(2-(ethyl(3-ethylphenyl)amino)-2-oxoethyl)-1H-indole-2-carboxamide [JRW-0921]”: the IC50 is 1.1 nM.

“N-(trans-4-((6-(3′,6′-diamino-3-oxo-3H-spiro[isobenzofuran-1,9′-xanthene]-5,6-carboxamido)hexyl)carbamoyl)cyclohexyl)-1-(2-(ethyl(3-ethylphenyl)amino)-2-oxoethyl)-1H-indole-2-carboxamide [JRW-0859]”: the IC50 worked out at 2 nM.

For the molecule “N-(trans-4-((8-(3′,6′-diamino-3-oxo-3H-spiro[isobenzofuran-1,9′-xanthene]-5,6-carboxamido)octyl)carbamoyl)cyclohexyl)-1-(2-(ethyl(3-ethylphenyl)amino)-2-oxoethyl)-1H-indole-2-carboxamide [JRW-0886]”, the 50% inhibitory concentration (IC50) is 3.7 nM.

Take “N-(trans-4-((8-(4′,5′-dichloro-3′,6′-dihydroxy-2′,7′-dimethoxy-3-oxo-3H-spiro[isobenzofuran-1,9′-xanthene]-5,6-carboxamido)octyl)carbamoyl)cyclohexyl)-1-(2-(ethyl(3-ethylphenyl)amino)-2-oxoethyl)-1H-indole-2-carboxamide [JRW-0964]”: the IC50 was 12 nM.

For the molecule “N-(trans-4-((8-(6-((Z)-2-((E)-3-(1,1-dimethyl-1,4,5,6-tetrahydro-3λ4-pyrrolo[3,2,1-ij]quinolin-2-yl)allylidene)-1-methyl-1,2,5,6-tetrahydro-4H-pyrrolo[3,2,1-ij]quinolin-1-yl)hexanamido)octyl)carbamoyl)cyclohexyl)-1-(2-(ethyl(3-ethylphenyl)amino)-2-oxoethyl)-1H-indole-2-carboxamide [JRW-0958]”, the IC50 stood at 16 nM.

Another assay has as its target T1, NanoLuc. The assay is described as follows: Suicide inhibition: displacement of inhibitor by furimazine upon dilution (FIG. 7). As to conditions: 10 μM Nluc + 10 μM inhibitor 30 minutes at RT, diluted to 10 pM, furimazine 10 uM.
Procedure: Following dilution, 50 ul of the dilution was combined with 50 ul of NanoGlo® assay buffer.
Following dilution, 50 ul of the dilution was combined with 50 ul of NanoGlo® assay buffer. Final furimazine concentration was 10 uM.
On to `CCc1cccc(N(CC)C(=O)Cn2c(C(=O)N[C@H]3CC[C@H](C(=O)NCCCCCC(=O)OC)CC3)cc3ccccc32)c1` [JRW-0598, methyl 6-(trans-4-(1-(2-(ethyl(3-ethylphenyl)amino)-2-oxoethyl)-1H-indole-2-carboxamido)cyclohexane-1-carboxamido)hexanoate], for which the “displacement of inhibitor by furimazine upon dilution” value (“displacement of inhibitor” below) is given as “slower”.

Take `CCc1cccc(N(CC)C(=O)Cn2c(C(=O)N[C@H]3CC[C@H](C(=O)NCCCCCCCC(=O)ON4C(=O)CCC4=O)CC3)cc3ccccc32)c1` [JRW-0600, 2,5-dioxopyrrolidin-1-yl 8-(trans-4-(1-(2-(ethyl(3-ethylphenyl)amino)-2-oxoethyl)-1H-indole-2-carboxamido)cyclohexane-1-carboxamido)octanoate]: the “displacement of inhibitor” value was “not displaced” and the “reversibility of Nluc inhibition” value is given as “irreversible inhibition; also recorded: irreversibly inhibit”.

Regarding `CCc1cccc(N(CC)C(=O)Cn2c(C(=O)N[C@H]3CC[C@H](C(=O)NCCCCCC(=O)ON4C(=O)CCC4=O)CC3)cc3ccccc32)c1` [JRW-0604, 2,5-dioxopyrrolidin-1-yl 6-(trans-4-(1-(2-(ethyl(3-ethylphenyl)amino)-2-oxoethyl)-1H-indole-2-carboxamido)cyclohexane-1-carboxamido)hexanoate], the “displacement of inhibitor” value was “slower” and the “reversibility of Nluc inhibition” value is listed as “did not show irreversible inhibition”.

Regarding `CCc1cccc(N(CC)C(=O)Cn2c(C(=O)N[C@H]3CC[C@H](C(=O)NCCCCCC(=O)Oc4ccccc4)CC3)cc3ccccc32)c1` [JRW-0606, phenyl 6-(trans-4-(1-(2-(ethyl(3-ethylphenyl)amino)-2-oxoethyl)-1H-indole-2-carboxamido)cyclohexane-1-carboxamido)hexanoate], the “displacement of inhibitor” value is “slower”.

With `CCc1cccc(N(CC)C(=O)Cn2c(C(=O)N[C@H]3CC[C@H](C(=O)NCCCCCCNC(=O)c4ccc5c(c4)C(=O)OC54c5ccc(OC(C)=O)cc5Oc5cc(OC(C)=O)ccc54)CC3)cc3ccccc32)c1` [JRW-0650, 5-((6-(trans-4-(1-(2-(ethyl(3-ethylphenyl)amino)-2-oxoethyl)-1H-indole-2-carboxamido)cyclohexane-1-carboxamido)hexyl)carbamoyl)-3-oxo-3H-spiro[isobenzofuran-1,9′-xanthene]-3′,6′-diyl diacetate], the “displacement of inhibitor” value is reported as “slower”.
